According to the supplement of paper PMC11451515:

What was measured:
Settings in all cases: 48 h
SEM cells [1] = test: AUC of viability dose-response curve (% viability x log10 dose units); higher = less sensitive
Procedure, shortened: (§1)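 Medium-adapted leukemia cells in 1536-well plates, at 500 or 1000 cells/well, were incubated for 48 h at 37°C with library compounds in DMSO at 11 threefold doses from 47 μM to 0.79 nM. CellTiter-Glo One luminescence normalised per plate to DMSO and cell-free wells was fitted with a four-parameter log-logistic model over log10 doses. Area under the curve was integrated from this fit by trapezoidal rule, with curves beyond full viability scaled and failed quality-control curves removed.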

NOMO1 [2] = test: as above
Procedure, shortened: as §1

P12-Ichikawa [3] = test: as above
Procedure, shortened: as §1

SEM cells [4] = test: cell viability relative to DMSO control; higher = less cytotoxic
Procedure, shortened: (§2)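 Library compounds in DMSO were pin-dosed into 1536-well plates (5 μl) holding NOMO1 or SEM (500 cells/well) or P12-Ichikawa (1000 cells/well) leukemia cells, across an 11-point threefold series of 47 μM to 0.79 nM. Each cell line had been adapted for at least four passages in each medium. CellTiter-Glo One luminescence was read after 48 h at 37°C. Viability is the per-plate percentage relative to DMSO wells, with cell-free wells as background.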

NOMO1 [5] = test: as above
Procedure, shortened: as §2

P12-Ichikawa [6] = test: as above
Procedure, shortened: as §2

CCC(=O)OCC(=O)[C@@]1(OC(=O)CC)[C@@H](C)C[C@H]2[C@@H]3CCC4=CC(=O)C=C[C@]4(C)[C@@]3(F)[C@@H](O)C[C@@]21C
AUC of viability dose-response curve
Settings | NOMO1 [2] | P12-Ichikawa [3] | SEM cells [1]
HPLM + 10% dialyzed FBS | 360 | 351 | 426
RPMI 5 mM glucose + 10% FBS | 408 | 335 | 390
RPMI 5 mM glucose + 10% dialyzed FBS | 391 | 317 | 372

cell viability [%]
Settings | NOMO1 [5] | P12-Ichikawa [6] | SEM cells [4]
HPLM + 10% dialyzed FBS, 0.000781 µM | 117 | 107 | 78.1
HPLM + 10% dialyzed FBS, 0.00234 µM | 130 | 110 | 99.1
HPLM + 10% dialyzed FBS, 0.00702 µM | 111 | 111 | 93.2
HPLM + 10% dialyzed FBS, 0.0211 µM | 109 | 107 | 98.5
HPLM + 10% dialyzed FBS, 0.0632 µM | 115 | 111 | 100
HPLM + 10% dialyzed FBS, 0.19 µM | 97.4 | 96.4 | 102
HPLM + 10% dialyzed FBS, 0.569 µM | 106 | 80.1 | 84.2
HPLM + 10% dialyzed FBS, 1.71 µM | 62.7 | 65.9 | 90.7
HPLM + 10% dialyzed FBS, 5.12 µM | 43.5 | 64.3 | 91.8
HPLM + 10% dialyzed FBS, 15.4 µM | 28.3 | 12.3 | 70.2
HPLM + 10% dialyzed FBS, 46.1 µM | 25.4 | 6.01 | 61.2
RPMI 5 mM glucose + 10% FBS, 0.000781 µM | 99.3 | 106 | 104
RPMI 5 mM glucose + 10% FBS, 0.00234 µM | 98.8 | 111 | 114
RPMI 5 mM glucose + 10% FBS, 0.00702 µM | 107 | 121 | 116
RPMI 5 mM glucose + 10% FBS, 0.0211 µM | 112 | 108 | 114
RPMI 5 mM glucose + 10% FBS, 0.0632 µM | 112 | 102 | 116
RPMI 5 mM glucose + 10% FBS, 0.19 µM | 105 | 89.9 | 95.6
RPMI 5 mM glucose + 10% FBS, 0.569 µM | 116 | 73.4 | 87.3
RPMI 5 mM glucose + 10% FBS, 1.71 µM | 95 | 68.6 | 71.5
RPMI 5 mM glucose + 10% FBS, 5.12 µM | 84.5 | 56 | 79.4
RPMI 5 mM glucose + 10% FBS, 15.4 µM | 16.9 | 6.2 | 69.9
RPMI 5 mM glucose + 10% FBS, 46.1 µM | 18.8 | 6.14 | 50.3
RPMI 5 mM glucose + 10% dialyzed FBS, 0.000781 µM | 110 | 101 | 116
RPMI 5 mM glucose + 10% dialyzed FBS, 0.00234 µM | 112 | 111 | 115
RPMI 5 mM glucose + 10% dialyzed FBS, 0.00702 µM | 117 | 107 | 126
RPMI 5 mM glucose + 10% dialyzed FBS, 0.0211 µM | 115 | 94.8 | 112
RPMI 5 mM glucose + 10% dialyzed FBS, 0.0632 µM | 118 | 90.3 | 115
RPMI 5 mM glucose + 10% dialyzed FBS, 0.19 µM | 136 | 76.2 | 88.5
RPMI 5 mM glucose + 10% dialyzed FBS, 0.569 µM | 108 | 67.6 | 92.6
RPMI 5 mM glucose + 10% dialyzed FBS, 1.71 µM | 79.1 | 54.6 | 75.3
RPMI 5 mM glucose + 10% dialyzed FBS, 5.12 µM | 84.3 | 52.2 | 69.7
RPMI 5 mM glucose + 10% dialyzed FBS, 15.4 µM | 26.4 | 5.68 | 65.9
RPMI 5 mM glucose + 10% dialyzed FBS, 46.1 µM | 23.9 | 4.77 | 48.8

CN(C)CCc1c[nH]c2ccc(C[C@H]3COC(=O)N3)cc12
AUC of viability dose-response curve
Settings | NOMO1 [2] | P12-Ichikawa [3] | SEM cells [1]
HPLM + 10% dialyzed FBS | 423 | 405 | 384
RPMI 5 mM glucose + 10% FBS | 433 | 409 | 340
RPMI 5 mM glucose + 10% dialyzed FBS | 449 | 411 | 381

cell viability [%]
Settings | NOMO1 [5] | P12-Ichikawa [6] | SEM cells [4]
HPLM + 10% dialyzed FBS, 0.000781 µM | 104 | 98.4 | 72
HPLM + 10% dialyzed FBS, 0.00234 µM | 119 | 109 | 89.4
HPLM + 10% dialyzed FBS, 0.00702 µM | 106 | 109 | 97.7
HPLM + 10% dialyzed FBS, 0.0211 µM | 113 | 115 | 95.1
HPLM + 10% dialyzed FBS, 0.0632 µM | 106 | 105 | 99.3
HPLM + 10% dialyzed FBS, 0.19 µM | 121 | 105 | 108
HPLM + 10% dialyzed FBS, 0.569 µM | 127 | 116 | 96
HPLM + 10% dialyzed FBS, 1.71 µM | 111 | 112 | 88.2
HPLM + 10% dialyzed FBS, 5.12 µM | 104 | 88.7 | 72.9
HPLM + 10% dialyzed FBS, 15.4 µM | 48.1 | 13.7 | 29.7
HPLM + 10% dialyzed FBS, 46.1 µM | 9.77 | 9.01 | 7.45
RPMI 5 mM glucose + 10% FBS, 0.000781 µM | 104 | 105 | 78.3
RPMI 5 mM glucose + 10% FBS, 0.00234 µM | 98.6 | 101 | 85.5
RPMI 5 mM glucose + 10% FBS, 0.00702 µM | 106 | 112 | 89
RPMI 5 mM glucose + 10% FBS, 0.0211 µM | 101 | 104 | 97
RPMI 5 mM glucose + 10% FBS, 0.0632 µM | 112 | 111 | 90.9
RPMI 5 mM glucose + 10% FBS, 0.19 µM | 97.3 | 117 | 88.7
RPMI 5 mM glucose + 10% FBS, 0.569 µM | 110 | 116 | 88.2
RPMI 5 mM glucose + 10% FBS, 1.71 µM | 106 | 102 | 73.8
RPMI 5 mM glucose + 10% FBS, 5.12 µM | 99.9 | 84.1 | 47.8
RPMI 5 mM glucose + 10% FBS, 15.4 µM | 59.2 | 36.2 | 13.3
RPMI 5 mM glucose + 10% FBS, 46.1 µM | 12.9 | 6.37 | 5.94
RPMI 5 mM glucose + 10% dialyzed FBS, 0.000781 µM | 96.4 | 108 | 88.8
RPMI 5 mM glucose + 10% dialyzed FBS, 0.00234 µM | 108 | 100 | 94
RPMI 5 mM glucose + 10% dialyzed FBS, 0.00702 µM | 106 | 105 | 89.5
RPMI 5 mM glucose + 10% dialyzed FBS, 0.0211 µM | 111 | 111 | 99.8
RPMI 5 mM glucose + 10% dialyzed FBS, 0.0632 µM | 116 | 106 | 95.7
RPMI 5 mM glucose + 10% dialyzed FBS, 0.19 µM | 114 | 111 | 96.3
RPMI 5 mM glucose + 10% dialyzed FBS, 0.569 µM | 108 | 104 | 93.7
RPMI 5 mM glucose + 10% dialyzed FBS, 1.71 µM | 102 | 112 | 80.8
RPMI 5 mM glucose + 10% dialyzed FBS, 5.12 µM | 109 | 80.2 | 75.6
RPMI 5 mM glucose + 10% dialyzed FBS, 15.4 µM | 87.8 | 38.2 | 26
RPMI 5 mM glucose + 10% dialyzed FBS, 46.1 µM | 20.1 | 7.95 | 7.13

CCOc1cc(N)c(Cl)cc1C(=O)NCC1CN(Cc2ccc(F)cc2)CCO1 (centres undefined)
AUC of viability dose-response curve
Settings | NOMO1 [2] | P12-Ichikawa [3] | SEM cells [1]
HPLM + 10% dialyzed FBS | 464 | 467 | 419
RPMI 5 mM glucose + 10% FBS | 470 | 467 | 467
RPMI 5 mM glucose + 10% dialyzed FBS | 460 | 469 | 466

cell viability [%]
Settings | NOMO1 [5] | P12-Ichikawa [6] | SEM cells [4]
HPLM + 10% dialyzed FBS, 0.000781 µM | 85.2 | 104 | 85.4
HPLM + 10% dialyzed FBS, 0.00234 µM | 120 | 110 | 110
HPLM + 10% dialyzed FBS, 0.00702 µM | 125 | 106 | 104
HPLM + 10% dialyzed FBS, 0.0211 µM | 118 | 110 | 100
HPLM + 10% dialyzed FBS, 0.0632 µM | 119 | 110 | 109
HPLM + 10% dialyzed FBS, 0.19 µM | 120 | 111 | 112
HPLM + 10% dialyzed FBS, 0.569 µM | 102 | 109 | 128
HPLM + 10% dialyzed FBS, 1.71 µM | 120 | 100 | 114
HPLM + 10% dialyzed FBS, 5.12 µM | 128 | 119 | 118
HPLM + 10% dialyzed FBS, 15.4 µM | 111 | 112 | 119
HPLM + 10% dialyzed FBS, 46.1 µM | 107 | 109 | 132
RPMI 5 mM glucose + 10% FBS, 0.000781 µM | 102 | 107 | 99.8
RPMI 5 mM glucose + 10% FBS, 0.00234 µM | 115 | 116 | 113
RPMI 5 mM glucose + 10% FBS, 0.00702 µM | 106 | 106 | 107
RPMI 5 mM glucose + 10% FBS, 0.0211 µM | 108 | 112 | 116
RPMI 5 mM glucose + 10% FBS, 0.0632 µM | 114 | 109 | 114
RPMI 5 mM glucose + 10% FBS, 0.19 µM | 108 | 115 | 114
RPMI 5 mM glucose + 10% FBS, 0.569 µM | 106 | 115 | 95.5
RPMI 5 mM glucose + 10% FBS, 1.71 µM | 113 | 115 | 115
RPMI 5 mM glucose + 10% FBS, 5.12 µM | 122 | 115 | 109
RPMI 5 mM glucose + 10% FBS, 15.4 µM | 109 | 119 | 94.7
RPMI 5 mM glucose + 10% FBS, 46.1 µM | 104 | 112 | 90.3
RPMI 5 mM glucose + 10% dialyzed FBS, 0.000781 µM | 113 | 99.3 | 113
RPMI 5 mM glucose + 10% dialyzed FBS, 0.00234 µM | 115 | 106 | 110
RPMI 5 mM glucose + 10% dialyzed FBS, 0.00702 µM | 122 | 106 | 100
RPMI 5 mM glucose + 10% dialyzed FBS, 0.0211 µM | 118 | 102 | 109
RPMI 5 mM glucose + 10% dialyzed FBS, 0.0632 µM | 116 | 108 | 119
RPMI 5 mM glucose + 10% dialyzed FBS, 0.19 µM | 111 | 117 | 122
RPMI 5 mM glucose + 10% dialyzed FBS, 0.569 µM | 125 | 107 | 112
RPMI 5 mM glucose + 10% dialyzed FBS, 1.71 µM | 112 | 112 | 115
RPMI 5 mM glucose + 10% dialyzed FBS, 5.12 µM | 111 | 106 | 105
RPMI 5 mM glucose + 10% dialyzed FBS, 15.4 µM | 107 | 105 | 104
RPMI 5 mM glucose + 10% dialyzed FBS, 46.1 µM | 107 | 104 | 92.5
